Test results: patent US4559344A, “Pyridine-pyrimidinone derivatives, a process for their production and H -antagonist medicament containing these compounds” (Ludwig Heumann & Co. GmbH, priority 1983, dated 1985)

Key:
[1] = background statement; cited from earlier work
histamine-H2-receptors = target: T1, histamine-H2-receptors (Cavia porcellus, UniProt P47747); experiment: pA2 determination of H2-antagonistic activity in vitro on the isolated atrium of guinea pigs; settings: isolated guinea pig atrium
T1 construct: in vitro on the isolated atrium of guinea pigs; from tissue; host or cells: isolated guinea pig atrium
From the text: A recognized method of measuring H2 -antagonistic activity is based on determination of the pA2 -values in vitro on the isolated atrium of guinea pigs (cf. Ariens, Molecular Pharmacology, Vol. 1, Academic Press, New York, 1964).

T1 sequence (P47747 whole entry): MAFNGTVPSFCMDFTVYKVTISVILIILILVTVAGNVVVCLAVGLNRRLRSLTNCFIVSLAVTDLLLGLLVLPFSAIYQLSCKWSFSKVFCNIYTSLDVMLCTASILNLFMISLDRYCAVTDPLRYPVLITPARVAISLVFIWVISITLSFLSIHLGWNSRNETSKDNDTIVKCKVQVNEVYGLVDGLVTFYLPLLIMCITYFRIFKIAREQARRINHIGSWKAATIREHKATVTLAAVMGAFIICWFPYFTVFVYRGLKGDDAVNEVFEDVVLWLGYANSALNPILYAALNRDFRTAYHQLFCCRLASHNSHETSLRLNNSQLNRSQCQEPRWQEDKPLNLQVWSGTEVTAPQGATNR

| Kb (histamine-H2-receptors) [nM] | SMILES | half life [1] |
| --- | --- | --- |
| – | CN/C(=N/CCSCc1nc[nH]c1C)NC#N [Cimetidine, cimetidine] | relatively short half life |
| 21.9 | Cc1ccc(Cc2cnc(CCCCOc3cccc(CN4CCCCC4)c3)[nH]c2=O)cn1 [Example 1, 5-(6-methylpyrid-3-ylmethyl)-2-[4-[3-(1-piperidylmethyl)-phenoxy]-butyl]-pyrimidin-4-one] | – |
